Results on five molecules are retold here after paper PMC9232105, “S-Adenosylmethionine–responsive cystathionine β-synthase modulates sulfur metabolism and redox balance in Mycobacterium tuberculosis” (Science Advances, 2022).

In series [1] the target is T1, cystathionine β-synthase (MtbCbs, Rv1077) (Mycobacterium tuberculosis, UniProt P9WP51). Put plainly: cryo-EM ([…] Å) with SAM + Ser; cystathionine formation by acid-ninhydrin and LC-MS/MS. In kind it is binding. Further details: gene cbs; full-length WT MtbCbs.
Series [2] concerns the target T1, cystathionine β-synthase (MtbCbs, Rv1077). Put plainly: biochemical. Also noted: gene cbs; full-length WT MtbCbs, C-terminal 6×His. Type of series: binding.
Series [3] has the same target. In kind it is biochemical. Also noted: gene cbs; full-length WT MtbCbs.
The target is the same in series [4]. Put plainly: acid-ninhydrin and LC-MS/MS cystathionine formation; lead acetate kinetics with Cys. In kind it is biochemical. Also noted: gene cbs; full-length WT MtbCbs.
The series “SEC + SEC-MALS” concerns the molecule itself. Description: SEC + SEC-MALS.

Take `N[C@@H](CO)C(=O)O` [L-serine]: the “cryo-EM (4.25 Å) with SAM + Ser; cystathionine formation by acid-ninhydrin and L” value in series [1] is reported as “formation of external aldimine/aminoacrylate at the active site, which indicates association of Ser with PLP”.
As to `C[S+](CC[C@H](N)C(=O)[O-])C[C@H]1O[C@@H](n2cnc3c(N)ncnc32)[C@H](O)[C@@H]1O` (some centres unmarked) [S-adenosylmethionine], the dissociation constant Kd in series [2] was roughly 128 µM.
Consider `N[C@@H](CS)C(=O)O` [L-cysteine], for which the “lead acetate H2S assay with steady-state kinetics; LC-MS/MS of lanthionine” value in series [3] is given as “lead-acetate assay confirmed that MtbCbs generates H2S using Cys or Hcys + Cys but not from Hcys alone”.
On to `NC(CCS)C(=O)O` [L-Hcys], for which the “acid-ninhydrin and LC-MS/MS cystathionine formation; lead acetate kinetics with” value in series [4] is “MtbCbs produces Cysth from Ser + Hcys and Cys + Hcys”.

B1: Mycobacterium tuberculosis cystathionine β-synthase (MtbCbs, Rv1077), wild type (enzyme)
chain: MRIAQHISELIGGTPLVRLNSVVPDGAGTVAAKVEYLNPGGSSKDRIAVKMIEAAEASGQLKPGGTIVEPTSGNTGVGLALVAQRRGYKCVFVCPDKVSEDKRNVLIAYGAEVVVCPTAVPPHDPASYYSVSDRLVRDIDGAWKPDQYANPEGPASHYVTTGPEIWADTEGKVTHFVAGIGTGGTITGAGRYLKEVSGGRVRIVGADPEGSVYSGGAGRPYLVEGVGEDFWPAAYDPSVPDEIIAVSDSDSFDMTRRLAREEAMLVGGSCGMAVVAALKVAEEAGPDALIVVLLPDGGRGYMSKIFNDAWMSSYGFLRSRLDGSTEQSTVGDVLRRKSGALPALVHTHPSETVRDAIGILREYGVSQMPVVGAEPPVMAGEVAGSVSERELLSAVFEGRAKLADAVSAHMSPPLRMIGAGELVSAAGKALRDWDALMVVEEGKPVGVITRYDLLGFLSEGAGRR
modifications: PLP bound to K44 (internal aldimine)
notes: also called WT MtbCbs; native MtbCbs
Turning to B1, the “stoichiometry N” value in the series “SEC + SEC-MALS” is 4.

Usually Kd stands for the equilibrium constant for the complex coming apart. The low end stands for a tighter complex, the high end for a looser complex. The stoichiometry N is a count of units in the complex or per binding partner.
